Reference: US20180050012A1, “Method for Inhibiting Growth of Ovarian Cancer Cells” (NEW BELLUS ENTERPRISES CO., LTD., priority 2016, published 2018)

Legend:
[1] = system: LC3BII; assay: Autophagy: immunohistochemical staining and western blot of LC3BII in ES-2 cells; format: cell-based, human
Protocol: (§1) Western blot is carried out in a standard procedure. The cells were washed twice with PBS and then a cell lysis solution was added. Cell debris was removed by centrifugation to collect protein degradation products. The protein concentrate was quantified by BCA assay kit (Pierce, Thermo Scientific, USA). Each sample was taken an equal amount of protein degradation products to 10% SDS-PAGE electrophoresis then transferred to a PVDF membrane, followed by the addition of anti-autophagy-related genes (Atg-7, Atg-5, and LC3BII) primary antibodies, and an anti-β-actin antibody as a control group. After the target proteins and the primary antibodies reacted overnight, the secondary antibody conjugated to HRP was added. Finally, the signals of the target proteins were determined by a luminescence-based imaging system (UVP, LLC, USA).
Presumably because cisplatin treatment initiated autophagy that enhanced viability. […] After 4-acetyl-antroquinonol B treatment, LC3BII was detected by immunohistochemical staining and western blot, showing that 4-acetyl-antroquinonol B did inhibit the LC3BII expression on autophagosomes (FIG. 2A). Cell autophagy would protect cancer cells from apoptosis caused by chemotherapies. Hydroxychloroquine was a widely used antiparasitic drug. […] Hydroxychloroquine increased the pH inside lysosomes thus made the lysosomes difficult to fuse with mature autophagosomes. The Inhibitory effect on autophagy could also solve the problem of cell autophagy resistance due to chemotherapies in cancer cells.

[2] = system: ES-2 ovarian cancer cell line tumors; assay: ES-2 xenograft ovarian cancer animal model, tumor growth; format: in vivo, NOD-SCID mice; conditions: for cell growth of ovarian cancer cell line ES-2 (tumor growth status), single agent: administration of either agent alone
Protocol: In this study, tumors were induced by malignant ovarian cancer cell line ES-2 in NOD-SCID mice to establish malignant ovarian cancer animal models. The efficacy of oral and intraperitoneal administration of 4-acetyl-antroquinonol B for ovarian cancer was evaluated. In the ovarian cancer animal models, the malignant ovarian cancer cell line ES-2 was implanted subcutaneously to simulate the symptoms of malignant ovarian cancer. And the same time, the animals were fed with different concentrations of 4-acetyl-antroquinonol B every day for six weeks. The animals were sacrificed each week in the six weeks, respectively. […] In addition, different doses of 4-acetyl-antroquinonol B were administered orally (5 mg/kg and 10 mg/kg), and 1 dose (3 mg/kg) of cisplatin was injected intravenously each week (three doses total) when the tumor size was about 70-250 mm^3. […] Importantly, as for safety of 4-acetyl-antroquinonol B, the body weight changes of each group of mice were monitored weekly. […] Therefore, 4-acetyl-antroquinonol B was a potential adjuvant therapy agent in the treatment of ovarian cancer.
Immunodeficient mice (NOD/SCID mice, about 4-6 weeks old) were purchased from BioLASCO Taiwan Co., Ltd. The test was initiated after a week of domestication.
The selected tumor cells were ES2 malignant ovarian cancer cells. ES-2 cell line was derived from a ovarian cancer cell line which was highly resistant to chemotherapy drugs (e.g. cisplatin) and had poor prognosis. It was an anchorage-dependent cell line with strong transfer capacity. The culture medium was DMEM containing 10% fetal bovine serum (FBS), 1% non-essential amino acids (NEAA), and 1% antibiotics. The cells were incubated in a incubator at 37° C., 5% CO2 and subcultured once every 3 to 4 days.
The cells were treated with 0.05% trypsin-EDTA for 3 to 5 minutes to be suspended. The serum-containing medium was added to neutralize trypsin. The mixture was then centrifuged at 1000 rpm at 20° C. for 5 min. The supernatant was removed and the cell pellet was gently dispersed. The cells were resuspended in a suitable volume of culture medium. After mixing evenly, a little cell fluid was taken and cells were counted with a cytometer. The cells were diluted to a concentration of 10^7 cells per milliliter, and approximately 0.15 ml was dispensed into a 1.5 ml small centrifuge tube.
A solution of 4-acetyl-antroquinonol B was prepared in DMSO (250 mg/ml, DMSO was used as the solvent). After 4-acetyl-antroquinonol B was completely dissolved, the solution was dispensed as stock solution and stored at 4° C. Sterile normal saline solution was added to the stock to make a 500-fold dilution. The mixture was mixed evenly and then injected intraperitoneally. Cisplatin, a current clinical standard chemotherapy drug, was also an injection with a concentration of 50 mg/ml or 5 mg/ml, and both of which were injected intravenously without further dilution.
The day before tumor cells injection, zoletil 50 (10-fold dilution) and rompun 2% were mixed (1:1), and 0.25 ml of the mixture was injected intraperitoneally to each mouse for anesthesia. The mice were exposed to radiation to suppress their immunity after they were asleep. The irradiation dose was 0.75 Gy.
Mice were anesthetized with 2.5% isoflurane. The hair of injection site was shaved. The injection site was disinfected with 75% alcohol and povidone-iodine before injection. ES2 tumor cells were injected via 29G insulin needle. […]

[3] = design: species or system NOD-SCID mice; conditions: mouse, in vivo
Protocol: In this study, tumors were induced by malignant ovarian cancer cell line ES-2 in NOD-SCID mice to establish malignant ovarian cancer animal models. The efficacy of oral and intraperitoneal administration of 4-acetyl-antroquinonol B for ovarian cancer was evaluated. In the ovarian cancer animal models, the malignant ovarian cancer cell line ES-2 was implanted subcutaneously to simulate the symptoms of malignant ovarian cancer. And the same time, the animals were fed with different concentrations of 4-acetyl-antroquinonol B every day for six weeks. The animals were sacrificed each week in the six weeks, respectively. […] Importantly, as for safety of 4-acetyl-antroquinonol B, the body weight changes of each group of mice were monitored weekly. […]
The ES-2 ovarian cancer cells in logarithmic phase were mixed with serum suspension and 0.1 ml (2×10^6 cells) was inoculated into hind legs of NOD-SCID immunodeficient mice to form tumors. […] Changes in tumor volume and body weight were monitored and recorded every week. […] The longest diameter (a) and the shortest diameter (b) of the tumor on mice were measured. The tumor size=(a*b2)/2, and the tumor growth curve was calculated.

[4] = system: cell autophagy; conditions: recent phase II clinical study; cited from earlier work
[5] = system: ES-2 cell line; assay: Clonogenicity analysis; format: cell-based, human; conditions: FIG. 2D
Protocol: In a 6-well plate was seeded 600 cells per well. The culture medium was McCoy5A supplemented with 10% fetal bovine serum.

[6] = system: AKT/mTOR/p70S6K; assay: Western blot of signaling pathway molecules in ES2 cells; format: cell-based, human; conditions: treatment for 0, 3, 6, and 12 hours, FIG. 3
Protocol: as §1
The effect of 4-acetyl-arbutin-B on cell proliferation and autophagy of ovarian cancer cell line ES2 was observed, and the expression of autophagy-associated protein LC3BII and signaling pathway molecules AKT/mTOR/p70S6K were detected by western blot.

[7] = system: Atg-7; assay: Western blot of Atg-7 in treated cells; format: cell-based, human; conditions: FIG. 2C
Protocol: as §1

[8] = system: Atg-5; assay: Western blot of Atg-5 in treated cells; format: cell-based, human; conditions: FIG. 2C
Protocol: as §1

[9] = system: ES-2 ovarian cancer cell line; assay: Cytotoxicity test (SRB assay, cell viability); format: cell-based, human
From the text: (§2) The ovarian cancer cell lines used in this study included: ES-2, OV-2008, and SKOV-3 obtained from American Type Culture Collection (ATCC). ES-2 was a clear cell carcinoma cell line with high resistance to platinum chemotherapies. Compared with other types of cancer, the clear cell carcinoma was found having poor prognosis in previous studies. SKOV-3 and OV-2008 were more benign cell lines compared to ES-2. Cell culture medium was McCoy5A culture medium (GIbco, 16600-082) supplemented with 1% antibiotic (Gibco, 15140) and 10% fetal bovine serum (FBS, Sigma, F7524). The cells were incubated in a standard incubator (Shel Lab, Sheldon Manufacturing, USA) at 37° C., 5% CO2.
(§3) All the tested cells were incubated in a medium containing 10% fetal bovine serum. When the cells grew to about eighty percent full, the old culture medium was drained and the cells were washed with PBS (phosphate buffered saline) buffer solution. Then, 10 ml of serum-free culture medium was added. Different drugs were added depending on experimental purposes. The reaction was carried out in a 37° C. constant temperature incubator.
(§4) The ovarian cancer cell lines ES-2, OV-2008, and SKOV-3 were placed in a 96-well culture plate (2000 cells/per well) and incubated overnight in 100 μl of complete DMEM. 50 μl of complete DMEM equivalent sample containing 4-acetyl-antroquinonol B (0.5-50 μM) was added to the different wells of the culture plate. In addition, only 100 μl of complete DMEM was added to the control group. After 2 days of culture, the number of cells in each well was determined by sulforhodamine B (a protein-binding dye). Briefly, the cells were fixed in 10% trichloroacetic acid and stained with 0.4% sulforhodamine B. After stained for 20 minutes, the cells were washed with 1% acetic acid. Thereafter, the cell-bound sulforhodamine B was dissolved in 10 mM Tris base. The absorbance (optical density) was determined at 562 nm by a microtiter plate reader.

[10] = system: OV-2008 ovarian cancer cell line; assay: Cytotoxicity test (SRB assay, cell viability); format: cell-based, human; conditions: 0.5-50 μM, 2 days, FIG. 1B
From the text: as §2, §3, §4

[11] = system: SKOV-3 ovarian cancer cell line; assay: Cytotoxicity test (SRB assay, cell viability); format: cell-based, human
From the text: as §2, §3, §4

Q: What does the source list for `N.N.[Cl][Pt][Cl]` [cisplatin, reference compound]?
A: autophagy phenomenon after cisplatin treatment ([1]; ES-2 cell line): more significant; cell growth of ovarian cancer cell line ES-2 (tumor growth status), single agent [2]: effectively inhibited; body weight after sustained decrease from approximately 26 g [3]: about 21 g

Q: For `CCN(CCO)CCCC(C)Nc1ccnc2cc(Cl)ccc12` (stereo not drawn) [hydroxychloroquine], which “inhibition of cell autophagy” value [4] is on record?
A: Its value is “could successfully inhibit cell autophagy”.

Q: With `COC1=C(OC)[C@H](OC(C)=O)[C@H](C/C=C(\C)CC/C=C(\C)C[C@H]2C[C@H](C)C(=O)O2)[C@@H](C)C1=O` [4-acetyl-antroquinonol B] as the compound, how does the cell autophagy ([1]; ES-2 cell line) read?
A: Its cell autophagy is “significantly inhibited”.

Q: And the “autophagosome maturation compared with hydroxychloroquine” value ([1]; ES-2 pretreated with 5 μM cisplatin, FIG. 2B)?
A: Its value is “inhibited more than in cells treated with hydroxychloroquine”.

Q: What about the “LC3BII expression on autophagosomes” value ([1]; immunohistochemical staining and western blot, FIG. 2A) of the same compound?
A: Its value is “did inhibit”.

Q: And the “cell growth of ovarian cancer cell line ES-2 (tumor growth status), single agent” value [2]?
A: Its value is “effectively inhibited”.

Q: What about the “inhibitory effect on tumor growth, administered alone” value ([2]; oral 5 mg/kg and 10 mg/kg) of the same compound?
A: Its value is “dose-dependent inhibitory effect”.

Q: And the “tumor severity versus control group” value ([2]; oral or intraperitoneal injection, daily for six weeks)?
A: Its value is “significantly lower”.

Q: And the “combined inhibitory effect on ovarian cancer with cisplatin and FOLFOX” value ([2]; ovarian cancer animal model)?
A: The value was “synergistic inhibitory effect”.

Q: And the “cell colony formation efficiency” value [5]?
A: Its value is “decreased”.

Q: And the “expressions of signaling pathway key molecules AKT/mTOR/p70S6K” value [6]?
A: The value was “significantly reduced”.

Q: And the “expression of Atg-7” value [7]?
A: The value was “reduced”.

Q: What about the “expression of downstream Atg-5” value [8] of the same compound?
A: Its value is “inhibited”.

Q: What about the “safety in the living body” value [3] of the same compound?
A: Its value is “extremely high”.

Q: And the “growth of ES2 cells” value ([9]; 20 uM, time-dependent effect, P<0.05)?
A: Its value is “significantly inhibited”.

Q: What about the “response to 4-acetyl-antroquinonol B in cell viability test (cytotoxicity)” value ([9]; ES-2, 0.5-50 μM, 2 days, FIG. 1B) of the same compound?
A: Its value is “most pronounced response”.

Q: What about the “cell viability compared with hydroxychloroquine” value ([9]; ES-2 pretreated with 5 μM cisplatin, same concentration) of the same compound?
A: Its value is “significantly lower than that in cells treated with hydroxychloroquine”.

Q: And the “response to 4-acetyl-antroquinonol B in cell viability test (cytotoxicity)” value [10]?
A: The value was “responsive”.

Q: What about the “inhibitory effect on ovarian cancer cell line” value [11] of the same compound?
A: Its value is “high inhibitory effect”.
